Reference: patent US20170210723A1, “MOLECULES HAVING PESTICIDAL UTILITY, AND INTERMEDIATES, COMPOSITIONS, AND PROCESSES, RELATED THERETO” (priority 2016, published 2017)

Key:
[1] = test system: Beet Armyworm (Spodoptera exigua); test: Bioassays on BAW, 128-well diet tray assay; type: in vivo; conditions: Spodoptera exigua; for mortality at 50 µg/cm2: 168 h, 50 μg/cm^2 on artificial diet, second instar larvae, five to seven days, read-out: BAW % Control (or Mortality) rating
[2] = test system: Cabbage Looper (Trichoplusia ni); test: Bioassays on CL, 128-well diet tray assay; type: in vivo; conditions: Trichoplusia ni; for mortality at 50 µg/cm2: 168 h, 50 μg/cm^2 on artificial diet, second instar larvae, five to seven days, read-out: CL % Control (or Mortality) rating
Procedure, shortened: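 Test molecule at 50 μg/cm^2 applied to the artificial diet surface (acetone-water) and dried; one to five second-instar T. ni larvae per well, eight wells per treatment, held at 25° C., 14:10 light-dark for five to seven days. Percent mortality averaged over wells.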

C[C@H](CS(=O)(=O)CC(F)(F)F)NC(=O)c1ccc(/C=C/C(c2cc(Cl)c(Cl)c(Cl)c2)C(C)(F)F)cc1Br (stereo partly drawn) [F130, 2-bromo-4-((E)-4,4-difluoro-3-(3,4,5-trichlorophenyl)pent-1-en-1-yl)-N—((R)-1-((2,2,2-trifluoroethyl)sulfonyl)propan-2-yl)benzamide]
mortality at 50 µg/cm2 [1]: 50 to 100% | mortality at 50 µg/cm2 [2]: 50 to 100%

C[C@H](CS(=O)(=O)CC(F)(F)F)NC(=O)c1ccc(/C=C/C(c2cc(Cl)cc(Cl)c2)C(C)(F)F)cc1Br (stereo partly drawn) [F133, 2-Bromo-4-((E)-3-(3,5-dichlorophenyl)-4,4-difluoropent-1-en-1-yl)-N—((R)-1-((2,2,2-trifluoroethyl)sulfonyl)propan-2-yl)benzamide]
mortality at 50 µg/cm2 [1]: 50 to 100% | mortality at 50 µg/cm2 [2]: 50 to 100%

C[C@H](CS(=O)(=O)CC(F)(F)F)NC(=O)c1ccc(/C=C/C(c2ccc(F)c(C(F)(F)F)c2)C(C)(F)F)cc1C(F)(F)F (stereo partly drawn) [F135, 4-((E)-4,4-Difluoro-3-(4-fluoro-3-(trifluoromethyl)phenyl)pent-1-en-1-yl)-N—((R)-1-((2,2,2-trifluoroethyl)sulfonyl)propan-2-yl)-2-(trifluoromethyl)benzamide]
mortality at 50 µg/cm2 [1]: 50 to 100% | mortality at 50 µg/cm2 [2]: 50 to 100%

C[C@H](CS(=O)(=O)CC(F)(F)F)NC(=O)c1ccc(/C=C/C(c2cc(F)c(F)c(F)c2)C(C)(F)F)cc1C(F)(F)F (stereo partly drawn) [F136, 4-((E)-4,4-Difluoro-3-(3,4,5-trifluorophenyl)pent-1-en-1-yl)-N—((R)-1-((2,2,2-trifluoroethyl)sulfonyl)propan-2-yl)-2-(trifluoromethyl)benzamide]
mortality at 50 µg/cm2 [1]: 50 to 100% | mortality at 50 µg/cm2 [2]: 50 to 100%

C[C@H](CSCC(F)(F)F)NC(=O)c1ccc(/C=C/C(c2ccc(Cl)c(Cl)c2)C(F)(F)F)cc1Br (stereo partly drawn) [F137, 2-Bromo-4-((E)-3-(3,4-dichlorophenyl)-4,4,4-trifluorobut-1-en-1-yl)-N—((R)-1-((2,2,2-trifluoroethyl)thio)propan-2-yl)benzamide]
mortality at 50 µg/cm2 [1]: 50 to 100% | mortality at 50 µg/cm2 [2]: 50 to 100%

C[C@H](CSCC(F)(F)F)NC(=O)c1ccc(/C=C/C(c2cc(Cl)c(Cl)c(Cl)c2)C(F)(F)F)cc1 (stereo partly drawn) [FC74, 4-((E)-4,4,4-Trifluoro-3-(3,4,5-trichlorophenyl)but-1-en-1-yl)-N—((R)-1-((2,2,2-trifluoroethyl)thio)propan-2-yl)benzamide]
mortality at 50 µg/cm2 [1]: 50 to 100% | mortality at 50 µg/cm2 [2]: 50 to 100%

C[C@H](C[S+]([O-])CC(F)(F)F)NC(=O)c1ccc(/C=C/C(c2cc(Cl)c(Cl)c(Cl)c2)C(F)(F)F)cc1 (stereo partly drawn) [FC77, 4-((E)-4,4,4-Trifluoro-3-(3,4,5-trichlorophenyl)but-1-en-1-yl)-N-((2R)-1-((2,2,2-trifluoroethyl)sulfinyl)propan-2-yl)benzamide]
mortality at 50 µg/cm2 [1]: 50 to 100% | mortality at 50 µg/cm2 [2]: 50 to 100%

C[C@H](CS(=O)(=O)CC(F)(F)F)NC(=O)c1ccc(/C=C/C(c2cc(Cl)c(Cl)c(Cl)c2)C(F)(F)F)cc1 (stereo partly drawn) [FC78, 4-((E)-4,4,4-Trifluoro-3-(3,4,5-trichlorophenyl)but-1-en-1-yl)-N—((R)-1-((2,2,2-trifluoroethyl)sulfonyl)propan-2-yl)benzamide]
mortality at 50 µg/cm2 [1]: 50 to 100% | mortality at 0.05 µg/cm2 ([1]; 0.05 μg/cm^2, read-out: BAW Percent control (or mortality)): 0% | mortality at 0.5 µg/cm2 ([1]; 0.5 μg/cm^2, read-out: BAW Percent control (or mortality)): 19% | mortality at 5 µg/cm2 ([1]; 5 μg/cm^2, read-out: BAW Percent control (or mortality)): 100% | mortality at 50 µg/cm2 [2]: 50 to 100% | mortality at 0.05 µg/cm2 ([2]; 0.05 μg/cm^2, read-out: CL Percent control (or mortality)): 0% | mortality at 0.5 µg/cm2 ([2]; 0.5 μg/cm^2, read-out: CL Percent control (or mortality)): 7% | mortality at 5 µg/cm2 ([2]; 5 μg/cm^2, read-out: CL Percent control (or mortality)): 100%
